Consider 36 molecules from US9447083B2, “N-acylhydrazone derivatives for selective T cell inhibitor and anti-lymphoid malignancy drug” (CHONG KUN DANG PHARMACEUTICAL CORP., priority 2012, dated 2016).

This assay relates to Jurkat T cells. As to the kind of experiment: Pro-apoptotic activity on Jurkat T cells (FITC-Annexin V / 7-AAD flow cytometry). The class given is cell-based. Conditions: Homo sapiens, 72 hours, cells stained with FITC-Annexin V and 7-AAD among total cells, read-out: Jurkat T Cell Apoptosis (% in 5 μM). How it is done:
In order to investigate the effects of the prepared compounds, the apoptosis-inducing effects of the compounds on human T cell acute lymphoblastic leukemia cell line, Jurkat T cells, were evaluated in the following manner.
Jurkat T cells cultured in RPMI medium containing 10% fetal bovine serum (FBS) were collected and stained with trypan blue (Sigma). […] Then, the cells were centrifuged at 1200 rpm at room temperature for 5 minutes and re-suspended in 10% FBS-containing RPMI medium at a concentration of 1.5×10^5 cells/mL. 200 μL of the cell suspension was dispensed into each well of a flat bottom 96-well plate (Costar). Then, the cells were treated with 10 μL of the diluted compounds in RPMI medium at final concentrations of […] or 5 μM, and incubated in a 5% CO2 incubator at 37° C. for 72 hours. In a vehicle control group, the cells were treated with 10 μL of RPMI medium containing 1% of dimetylsulfoxide (DMSO, Sigma). The incubated cells were harvested, put into 5-mL FACS tubes (BD Falcon), washed with 1 mL of phosphate buffered saline (PBS), and then re-suspended in 0.1 mL of binding buffer (10 mM Hepes-NaOH, pH 7.4, 140 mM NaCl, […] CaCl2). The suspended cells were stained with fluorescein isothiocyanate (FITC)-Annexin V (BD Biosciences) and 7-amino-actinomycin D (7-AAD, e-Biosciences) at room temperature for 15 minutes. The stained cells were suspended in 0.3 mL of binding buffer and analyzed by a flow cytometer. Apoptosis was determined by the ratio (%) of cells stained with FITC-Annexin V and 7-AAD among the total cells (see Tables 10 and 11).
(In general: Flow cytometry measures light scatter and fluorescence of single cells or particles in a stream.)
In the case of `CCc1nc(C)ccc1OCC(=O)N/N=C/c1ccc2cc[nH]c2c1` [Compound 293, (E)-N′-((1H-indol-6-yl)methylene)-2-(2-ethyl-6-methylpyridin-3-yloxy)acetohydrazide], the cytotoxicity at 5 µM is 100%.

On to `Cc1cc(OCC(=O)N/N=C/c2cccc3[nH]ccc23)nc(C)n1` [Compound 301, (E)-N′-((1H-indol-4-yl)methylene)-2-(2,6-dimethylpyrimidin-4-yloxy)acetohydrazide], for which the cytotoxicity at 5 µM stood at 100%.

Take `COc1ccc(OCC(=O)N/N=C/c2cccc3[nH]ccc23)c(C(C)(C)C)c1` [Compound 302, (E)-N′-((1H-indol-4-yl)methylene)-2-(2-tert-butyl-4-methoxyphenoxy)acetohydrazide]: the cytotoxicity at 5 µM was found to be 100%.

Regarding `COc1ccc(OCC(=O)N/N=C/c2ccc3cc[nH]c3c2)c(C(C)(C)C)c1` [Compound 303], the cytotoxicity at 5 µM worked out at 100%.

`Cc1ncccc1OCC(=O)N/N=C/c1ccc2cc[nH]c2c1` [Compound 304, (E)-N′-((1H-indol-6-yl)methylene)-2-((2-methylpyridin-3-yl)oxy)acetohydrazide]: the cytotoxicity at 5 µM was found to be 90%.

In the case of `O=C(COc1cccnc1-c1ccoc1)N/N=C/c1ccc2cc[nH]c2c1` [Compound 310, (E)-N′-((1H-indol-6-yl)methylene)-2-(2-(furan-3-yl)pyridin-3-yloxy)acetohydrazide], the cytotoxicity at 5 µM is 100%.

On to `Cc1cccc(C2CCOC2)c1OCC(=O)N/N=C/c1ccc2cc[nH]c2c1` (stereo not drawn) [Compound 311, (E)-N′-((1H-indol-6-yl)methylene)-2-(2-methyl-6-(tetrahydrofuran-3-yl)phenoxy)acetohydrazide], for which the cytotoxicity at 5 µM came out at 100%.

With `Cc1cccc(C2CCOC2)c1OCC(=O)N/N=C/c1cccc2[nH]ccc12` (stereo not drawn) [Compound 312, (E)-N′-((1H-indol-4-yl)methylene)-2-(2-methyl-6-(tetrahydrofuran-3-yl)phenoxy)acetohydrazide], the cytotoxicity at 5 µM was determined as 100%.

As for `Cc1cccc(-c2ccoc2)c1OCC(=O)N/N=C/c1ccc2cc[nH]c2c1` [Compound 313, (E)-N′-((1H-indol-6-yl)methylene)-2-(2-(furan-3-yl)-6-methylphenoxy)acetohydrazide], the cytotoxicity at 5 µM was 100%.

As for `Cc1cccc(-c2ccoc2)c1OCC(=O)N/N=C/c1cccc2[nH]ccc12` [Compound 314, (E)-N′-((1H-indol-4-yl)methylene)-2-(2-(furan-3-yl)-6-methylphenoxy)acetohydrazide], the cytotoxicity at 5 µM came out at 100%.

Take `Cc1cc(C)c(OCC(=O)N/N=C/c2cccc3[nH]ccc23)c(-c2ccco2)c1` [Compound 317, (E)-N′-((1H-indol-4-yl)methylene)-2-(2-(furan-2-yl)-4,6-dimethylphenoxy)acetohydrazide]: the cytotoxicity at 5 µM amounted to 100%.

Turning to `Cc1cc(C)c(OCC(=O)N/N=C/c2ccc3cc[nH]c3c2)c(-c2ccco2)c1` [Compound 318], the cytotoxicity at 5 µM was 100%.

Regarding `O=C(COc1cccnc1-c1ccoc1)N/N=C/c1cccc2[nH]ccc12` [Compound 319, (E)-N′-((1H-indol-4-yl)methylene)-2-((2-(furan-3-yl)pyridin-3-yl)oxy)acetohydrazide], the cytotoxicity at 5 µM stood at 100%.

Take `Cc1cc(C)c(OCC(=O)N/N=C/c2cccc3[nH]ccc23)c(C2CCOC2)c1` (stereo not drawn) [Compound 320, (E)-N′-((1H-indol-4-yl)methylene)-2-(2,4-dimethyl-6-(tetrahydrofuran-3-yl)phenoxy)acetohydrazide]: the cytotoxicity at 5 µM worked out at 100%.

With `Cc1cc(-c2ccoc2)cc(C)c1OCC(=O)N/N=C/c1ccc2cc[nH]c2c1` [Compound 322, (E)-N′-((1H-indol-6-yl)methylene)-2-(4-(furan-3-yl)-2,6-dimethylphenoxy)acetohydrazide], the cytotoxicity at 5 µM stood at 100%.

`Cc1cc(C2CCOC2)cc(C)c1OCC(=O)N/N=C/c1ccc2cc[nH]c2c1` (stereo not drawn) [Compound 323, (E)-N′-((1H-indol-6-yl)methylene)-2-(2,6-dimethyl-4-(tetrahydrofuran-3-yl)phenoxy)acetohydrazide]: the cytotoxicity at 5 µM turned out to be 100%.

Turning to `Cc1cccc(OCC(=O)N/N=C/c2cccc3[nH]ccc23)c1C` [Compound 326, (E)-N′-((1H-indol-4-yl)methylene)-2-(2,3-dimethylphenoxy)acetohydrazide], the cytotoxicity at 5 µM stood at 95%.

Consider `Cc1cccc(OCC(=O)N/N=C/c2ccc3cc[nH]c3c2)c1C` [Compound 327], for which the cytotoxicity at 5 µM was determined as 95%.

Take `CCc1nc(C)ccc1OCC(=O)N/N=C/c1cccc2[nH]ccc12` [Compound 329, (E)-N′-((1H-indol-4-yl)methylene)-2-((2-ethyl-6-methylpyridin-3-yl)oxy)acetohydrazide]: the cytotoxicity at 5 µM came to 100%.

As to `N#Cc1cc(Br)ccc1OCC(=O)N/N=C/c1cccc2[nH]ccc12` [Compound 330, (E)-N′-((1H-indol-4-yl)methylene)-2-(4-bromo-2-cyanophenoxy)acetohydrazide], the cytotoxicity at 5 µM was determined as 80%.

For `O=C(COc1cccnc1N1CCCC1)N/N=C/c1ccc2cc[nH]c2c1` [Compound 331, (E)-N′-((1H-indol-6-yl)methylene)-2-((2-(pyrrolidin-1-yl)pyridin-3-yl)oxy)acetohydrazide], the cytotoxicity at 5 µM is 100%.

Turning to `Cc1cc(C)c(OCC(=O)N/N=C/c2ccc3cc[nH]c3c2)c(C2CCCO2)c1` (stereo not drawn) [Compound 332, (E)-N′-((1H-indol-6-yl)methylene)-2-(2,4-dimethyl-6-(tetrahydrofuran-2-yl)phenoxy)acetohydrazide], the cytotoxicity at 5 µM came to 100%.

In the case of `Cc1cc(C)c(OCC(=O)N/N=C/c2cccc3[nH]ccc23)c(-c2ccoc2)c1` [Compound 333, (E)-N′-((1H-indol-4-yl)methylene)-2-(2-(furan-3-yl)-4,6-dimethylphenoxy)acetohydrazide], the cytotoxicity at 5 µM stood at 100%.

Regarding `Cc1cc(-c2ccoc2)cc(C)c1OCC(=O)N/N=C/c1cccc2[nH]ccc12` [Compound 336, (E)-N′-((1H-indol-4-yl)methylene)-2-(4-(furan-3-yl)-2,6-dimethylphenoxy)acetohydrazide], the cytotoxicity at 5 µM is 100%.

`Cc1cc(C2CCOC2)cc(C)c1OCC(=O)N/N=C/c1cccc2[nH]ccc12` (stereo not drawn) [Compound 337, (E)-N′-((1H-indol-4-yl)methylene)-2-(2,6-dimethyl-4-(tetrahydrofuran-3-yl)phenoxy)acetohydrazide]: the cytotoxicity at 5 µM is 100%.

As for `O=C(COc1cccnc1-c1ccsc1)N/N=C/c1ccc2cc[nH]c2c1` [Compound 343, (E)-N′-((1H-indol-6-yl)methylene)-2-((2-(thiophen-3-yl)pyridin-3-yl)oxy)acetohydrazide], the cytotoxicity at 5 µM came to 100%.

For `Cc1cc(C)c(OCC(=O)N/N=C/c2cccc3[nH]ccc23)c(-c2cccs2)c1` [Compound 344, (E)-N′-((1H-indol-4-yl)methylene)-2-(2,4-dimethyl-6-(thiophen-2-yl)phenoxy)acetohydrazide], the cytotoxicity at 5 µM was 100%.

`Cc1cc(C)c(OCC(=O)N/N=C/c2ccc3cc[nH]c3c2)c(-c2cccs2)c1` [Compound 345]: the cytotoxicity at 5 µM came out at 95%.

For `COc1ccc(OCC(=O)N/N=C/c2cccc3[nH]ccc23)c(-c2ccco2)c1` [Compound 346, (E)-N′-((1H-indol-4-yl)methylene)-2-(2-(furan-2-yl)-4-methoxyphenoxy)acetohydrazide], the cytotoxicity at 5 µM was 100%.

As to `COc1ccc(OCC(=O)N/N=C/c2ccc3cc[nH]c3c2)c(-c2ccco2)c1` [Compound 347], the cytotoxicity at 5 µM turned out to be 100%.

For `O=C(COc1cccc(-c2ccco2)c1)N/N=C/c1cccc2[nH]ccc12` [Compound 356, (E)-N′-((1H-indol-4-yl)methylene)-2-(3-(furan-2-yl)phenoxy)acetohydrazide], the cytotoxicity at 5 µM was 90%.

`O=C(COc1cccc(-c2cccnc2)c1)N/N=C/c1cccc2[nH]ccc12` [Compound 358, (E)-N′-((1H-indol-4-yl)methylene)-2-(3-(pyridin-3-yl)phenoxy)acetohydrazide]: the cytotoxicity at 5 µM turned out to be 100%.

Regarding `O=C(COc1cccc(-c2cccnc2)c1)N/N=C/c1ccc2cc[nH]c2c1` [Compound 359], the cytotoxicity at 5 µM was found to be 80%.

In the case of `Cc1cc(C)c(OCC(=O)N(C)/N=C/c2ccc3ccn(C)c3c2)c(C2CCOC2)c1` (stereo not drawn) [Compound 375, (E)-2-(2,4-dimethyl-6-(tetrahydrofuran-3-yl)phenoxy)-N-methyl-N′-((1-methyl-1H-indol-6-yl)methylene)acetohydrazide], the cytotoxicity at 5 µM was 100%.

On to `Cc1cc(F)cc(C2CCOC2)c1OCC(=O)N/N=C/c1ccc2cc[nH]c2c1` (stereo not drawn) [Compound 378, (E)-N′-((1H-indol-6-yl)methylene)-2-(4-fluoro-2-methyl-6-(tetrahydrofuran-3-yl)phenoxy)acetohydrazide], for which the cytotoxicity at 5 µM came out at 100%.

Take `Cc1cc(F)cc(C2CCOC2)c1OCC(=O)N/N=C/c1cccc2[nH]ccc12` (stereo not drawn) [Compound 379, (E)-N′-((1H-indol-4-yl)methylene)-2-(4-fluoro-2-methyl-6-(tetrahydrofuran-3-yl)phenoxy)acetohydrazide]: the cytotoxicity at 5 µM stood at 100%.
